These results are taken from patent US20140274766A1, “METHODS OF USING F-SPONDIN AS A BIOMARKER FOR CARTILAGE DEGENERATIVE CONDITIONS AND BONE DISEASES” (priority 2009, published 2014).

Assay [1] deals with embryonic chick chondrocytes. Nature of the assay: TGF-β treatment of embryonic chick chondrocytes, maturation marker expression (quantitative PCR). The settings on record: TGF-β 5 days. It is filed as cell-based. The method, then:
FIGS. 24A and 24B. TGF-β enhances chondrocyte maturation and is required for F-spondin mediated induction of AP. (A) Relative gene expression of chondrocyte maturation markers following TGF-β treatment. Upper sternal chondrocytes were treated with TGF-β at the indicated doses for 5 days and mRNA levels determined by quantitative PCR. Values are expressed relative to untreated controls. (B) Effect of TGF-β depletion on F-spondin-mediated induction of AP. The conditioned media of FS1 or pcDNA3 transfected chondrocytes was harvested and immunodepleted of TGF-β or left untreated, and added to separate cultures in the presence of RA. […] Values represent mean expression levels of triplicate samples relative to untreated supernatants from vector ctrl cultures (=1).
We have previously reported that F-spondin can regulate the synthetic activity of articular chondrocytes via activation of latent TGF-β (Attur, M et al (2009) Faseb J 23:79-89). Since the TSR domain harbors conserved TGF-β binding motifs, we proposed that F-spondin-mediated enhancement of chondrocyte maturation similarly occurs via TGF-β. […] To determine whether […] is required for F-spondin induction of AP, we transfected chick chondrocytes with FS1 or control vector cDNA and harvested conditioned media supernatants after 48 h. Supernatants were then depleted of TGF-β by coincubation with anti-TGF-b antibody and added to separate cultures of chick chondrocytes in the presence of retinoic acid for 24 h.

The test system of the next assay is OA cartilage. The assay can be described thus: IL-1 effect on gene expression in OA cartilage explant cultures (QPCR). The settings on record: IL-1 1 ng/ml, 24-72 h, OA cartilage explants. It is filed as cell-based, human. The method, then:
FIG. 7: IL-1 inhibited F-spondin and aggrecan expression in OA cartilage. OA cartilage was stimulated with IL-1 (1 ng/ml) for 24-72 h and total RNA was isolated and QPCR was performed.
Since IL-1 β appears to play a significant role in the pathogenesis of OA, its effects on F-spondin expression by QPCR in cartilage explants cultures was studied. Briefly, knee articular cartilage from patients undergoing knee replacement surgery was obtained and cut in 3-mm discs, and four to six discs (˜100 mg) were placed in organ culture in 2 ml of Ham's F-12 medium+0.1% human albumin (endo toxin fr) for 24-72 h, in the presence and absence of IL-1beta (1 ng/ml). At the end of the experiment the cartilage was frozen immediately in liquid nitrogen for RNA extraction.

The subject of another assay is chick chondrocytes. Nature of the assay: Alkaline phosphatase (AP) activity in RA-stimulated chick chondrocyte cultures. The assay is classed as cell-based. The settings on record: RA 3 days. The method, then:
FIG. 16. Inhibition of F-spondin decreases AP activity in RA stimulated cultures. Chick chondrocytes were treated with RA at 100 nm for 5 days with and without F-spondin antibodies and AP activity assessed. Antibodies with specificities to the spondin domain (medium grey) and TSR domain (black) inhibited AP activity compared to ctrl (noAb) (light grey). Note the greater inhibitory effect of the TSR domain antibody. * p=<0.05 versus no ab ctrl.
FIG. 17. The pro-maturation effect of F-spondin is not inhibited following neutralization of TGF-β activity by coculture with Latency Associated Peptide (LAP). AP activity was determined in chick chondrocyte cultures by ELISA following RA stimulation for 3 days. Cultures were either ctrl (RA only) or RA with either F-Spondin (1 ug/ml) or LAP (10 or 100 ng/ml), or RA with F-Spondin (1 ug/ml) and LAP (10 or 100 ng/ml) in combination.
FIG. 18. Blocking αvβ3 integrin inhibits the promaturation effect of F-spondin. Chondocyte cultures were transfected as previously and stimulated with RA for 3 days in the presence of IgG control, or αvβ3 blocking antibodies prior to assay for AP activity. Inhibition of αvβ3 led to a ˜50% suppression of F-spondin-induced AP activity but had no effect on baseline AP activity (vector ctrl).
FIGS. 23A, 23B and 23C. F-spondin regulation of chondrocyte maturation requires the TSR domain. (A) Schematic representation of F-spondin protein domains and plasmid constructs encoding either full length (FS1) or TSR domain truncated (FS6) cDNAs. (B) Relative AP activity of FS or pcDNA3 control transfected cultures after 5 days treatment. (C) Relative AP activity following inhibition of F-spondin protein domains. Upper sternal chondrocytes were stimulated with 0, 10, 35 or 100 nM retinoic acid (RA) for 5 days in culture. […]
We next determined that the pro-maturation effect of F-spondin is not inhibited following neutralization of TGF-β activity by coculture with Latency Associated Peptide (LAP) (R&D Systems, Cat No 246-LP/CF). […] AP activity was determined in chick chondrocyte cultures by ELISA following RA stimulation for 3 days. […]

In the case of TGF-β, in assay [1], the “expression of AP” value was “dose dependent increases”, the “expression of F-spondin” value is reported as “dose dependent increases” and the “expression of MMP-13” value was “dose dependent increases”.
For IL-1: pro-inflammatory cytokine, in the assay with OA cartilage, the “expression of F-spondin” value is “significantly inhibited” and the expression of aggrecan result is on record as “significantly inhibited”.
On to “LAP: Latency Associated Peptide (R&D Systems), neutralizes TGF-β activity”, for which, in the assay on chick chondrocytes (LAP 10-100 ng/ml with F-Spondin 1 ug/ml), the “effect on AP activity increase seen with F-spondin alone” value is recorded as “did not significantly alter”. Moreover, in the assay on chick chondrocytes (LAP 10-100 ng/ml), the chondrocyte maturation entry is reported as “accelerates maturation”.
